# Source: patent USRE47141E1, “Methods of treating fibrosis, cancer and vascular injuries” (EWHA University—Industry Collaboration Foundation, priority 2010, dated 2018)
# Target: ALK5 (Homo sapiens (Human), UniProt P36897)
# Experiment: Cell-free assay for inhibition of ALK5 kinase phosphorylation
# Format: biochemical
# Conditions: not given
# Sequence of ALK5 (P36897 34-503): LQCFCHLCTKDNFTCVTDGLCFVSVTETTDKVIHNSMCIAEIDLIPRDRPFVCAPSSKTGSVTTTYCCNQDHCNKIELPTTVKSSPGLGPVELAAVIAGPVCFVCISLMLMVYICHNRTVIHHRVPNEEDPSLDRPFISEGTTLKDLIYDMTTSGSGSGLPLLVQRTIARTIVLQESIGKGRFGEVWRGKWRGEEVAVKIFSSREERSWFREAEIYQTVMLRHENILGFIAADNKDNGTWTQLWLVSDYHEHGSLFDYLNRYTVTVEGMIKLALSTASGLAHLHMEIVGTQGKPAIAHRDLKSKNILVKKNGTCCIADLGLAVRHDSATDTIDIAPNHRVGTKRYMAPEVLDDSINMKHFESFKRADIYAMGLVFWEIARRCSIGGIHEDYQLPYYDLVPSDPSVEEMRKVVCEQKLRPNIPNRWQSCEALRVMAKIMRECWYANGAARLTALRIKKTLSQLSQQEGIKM
row,SMILES,IC50 [nM]
1,"Cc1cccc(-c2[nH]c(CNc3ccccc3C#N)nc2-c2ccc3ncnn3c2)n1 [Example 59, 2-((4-([1,2,4]triazolo[1,5-a]pyridin-6-yl)-5-(6-methylpyridin-2-yl)-1H-imidazol-2-yl)methylamino)benzonitrile]",19.5

# Same assay, conditions: read-out: IC50 on ALK5 kinase phosphorylation
row,SMILES,IC50 [nM]
1,"COCc1ccccc1NCc1nc(-c2ccc3ncnn3c2)c(-c2cccc(C)n2)[nH]1 [Example 48, N-((4-([1,2,4]triazolo[1,5-a]pyridin-6-yl)-5-(6-methylpyridin-2-yl)-1H-imidazol-2-yl)methyl)-2-(methoxymethyl)aniline]",24.1
2,"COCc1cccc(NCc2nc(-c3ccc4ncnn4c3)c(-c3cccc(C)n3)[nH]2)c1 [Example 49, N-((4-([1,2,4]triazolo[1,5-a]pyridin-6-yl)-5-(6-methylpyridin-2-yl)-1H-imidazol-2-yl)methyl)-3-(methoxymethyl)aniline]",15.3
3,"COCc1ccc(NCc2nc(-c3ccc4ncnn4c3)c(-c3cccc(C)n3)[nH]2)cc1 [Example 50, N-((4-([1,2,4]triazolo[1,5-a]pyridin-6-yl)-5-(6-methylpyridin-2-yl)-1H-imidazol-2-yl)methyl)-4-(methoxymethyl)aniline]",50.7
4,"Cc1cccc(-c2[nH]c(CNc3ccccc3OC(F)(F)F)nc2-c2ccc3ncnn3c2)n1 [Example 51, N-((4-([1,2,4]triazolo[1,5-a]pyridin-6-yl)-5-(6-methylpyridin-2-yl)-1H-imidazol-2-yl)methyl)-2-(trifluoromethoxy)aniline]",12.3
5,"Cc1cccc(-c2[nH]c(CNc3cccc(OC(F)(F)F)c3)nc2-c2ccc3ncnn3c2)n1 [Example 52, N-((4-([1,2,4]triazolo[1,5-a]pyridin-6-yl)-5-(6-methylpyridin-2-yl)-1H-imidazol-2-yl)methyl)-3-(trifluoromethoxy)aniline]",23.4
6,"Cc1cccc(-c2[nH]c(CNc3ccc(OC(F)(F)F)cc3)nc2-c2ccc3ncnn3c2)n1 [Example 53, N-((4-([1,2,4]triazolo[1,5-a]pyridin-6-yl)-5-(6-methylpyridin-2-yl)-1H-imidazol-2-yl)methyl)-4-(trifluoromethoxy)aniline]",60.1
7,"CSc1ccccc1NCc1nc(-c2ccc3ncnn3c2)c(-c2cccc(C)n2)[nH]1 [Example 54, N-((4-([1,2,4]triazolo[1,5-a]pyridin-6-yl)-5-(6-methylpyridin-2-yl)-1H-imidazol-2-yl)methyl)-2-(methylthio)aniline]",9.93
8,"CSc1cccc(NCc2nc(-c3ccc4ncnn4c3)c(-c3cccc(C)n3)[nH]2)c1 [Example 55, N-((4-([1,2,4]triazolo[1,5-a]pyridin-6-yl)-5-(6-methylpyridin-2-yl)-1H-imidazol-2-yl)methyl)-3-(methylthio)aniline]",6.7
9,"CSc1ccc(NCc2nc(-c3ccc4ncnn4c3)c(-c3cccc(C)n3)[nH]2)cc1 [Example 58, N-((4-([1,2,4]triazolo[1,5-a]pyridin-6-yl)-5-(6-methylpyridin-2-yl)-1H-imidazol-2-yl)methyl)-4-(methylthio)aniline]",39.6
10,"Cc1cccc(-c2[nH]c(CNc3cccc(C#N)c3)nc2-c2ccc3ncnn3c2)n1 [Example 60, 3-((4-([1,2,4]triazolo[1,5-a]pyridin-6-yl)-5-(6-methylpyridin-2-yl)-1H-imidazol-2-yl)methylamino)benzonitrile]",4.83
11,"Cc1cccc(-c2[nH]c(CNc3ccc(C#N)cc3)nc2-c2ccc3ncnn3c2)n1 [Example 63, 4-((4-([1,2,4]triazolo[1,5-a]pyridin-6-yl)-5-(6-methylpyridin-2-yl)-1H-imidazol-2-yl)methylamino)benzonitrile]",32.1
12,"Cc1cccc(-c2[nH]c(CNc3cccc(C#N)c3C#N)nc2-c2ccc3ncnn3c2)n1 [Example 64, 3-((4-([1,2,4]triazolo[1,5-a]pyridin-6-yl)-5-(6-methylpyridin-2-yl)-1H-imidazol-2-yl)methylamino)phthalonitrile]",20.6
13,"Cc1cccc(-c2[nH]c(CNc3ccccc3C(N)=O)nc2-c2ccc3ncnn3c2)n1 [Example 65, 2-((4-([1,2,4]triazolo[1,5-a]pyridin-6-yl)-5-(6-methylpyridin-2-yl)-1H-imidazol-2-yl)methylamino)benzamide]",29.7
14,"Cc1cccc(-c2[nH]c(CNc3cccc(C(N)=O)c3)nc2-c2ccc3ncnn3c2)n1 [Example 66, 3-((4-([1,2,4]triazolo[1,5-a]pyridin-6-yl)-5-(6-methylpyridin-2-yl)-1H-imidazol-2-yl)methylamino)benzamide]",9.14
15,"Cc1cccc(-c2[nH]c(CNc3ccc(C(N)=O)cc3)nc2-c2ccc3ncnn3c2)n1 [Example 67, 4-((4-([1,2,4]triazolo[1,5-a]pyridin-6-yl)-5-(6-methylpyridin-2-yl)-1H-imidazol-2-yl)methylamino)benzamide]",54.6
16,"Cc1cccc(-c2[nH]c(CNc3cccc(CC#N)c3)nc2-c2ccc3ncnn3c2)n1 [Example 68, 2-(3-((4-([1,2,4]triazolo[1,5-a]pyridin-6-yl)-5-(6-methylpyridin-2-yl)-1H-imidazol-2-yl)methylamino)phenyl)acetonitrile]",11
17,"Cc1cccc(-c2[nH]c(CNc3ccc(CC#N)cc3)nc2-c2ccc3ncnn3c2)n1 [Example 69, 2-(4-((4-([1,2,4]triazolo[1,5-a]pyridin-6-yl)-5-(6-methylpyridin-2-yl)-1H-imidazol-2-yl)methylamino)phenyl)acetonitrile]",24.5

row,SMILES,IC50 [nM]
1,"CC(=O)c1cccc(NCc2nc(-c3ccc4ncnn4c3)c(-c3cccc(C)n3)[nH]2)c1 [Example 70, 1-(3-((4-([1,2,4]triazolo[1,5-a]pyridin-6-yl)-5-(6-methylpyridin-2-yl)-1H-imidazol-2-yl)methylamino)phenyl)ethanone]",12.8
2,"CC(=O)c1ccc(NCc2nc(-c3ccc4ncnn4c3)c(-c3cccc(C)n3)[nH]2)cc1 [Example 71, 1-(4-((4-([1,2,4]triazolo[1,5-a]pyridin-6-yl)-5-(6-methylpyridin-2-yl)-1H-imidazol-2-yl)methylamino)phenyl)ethanone]",59.1
3,"COC(=O)c1cccc(NCc2nc(-c3ccc4ncnn4c3)c(-c3cccc(C)n3)[nH]2)c1 [Example 72, Methyl 3-((4-([1,2,4]triazolo[1,5-a]pyridin-6-yl)-5-(6-methylpyridin-2-yl)-1H-imidazol-2-yl)methylamino)benzoate]",16.6
4,"COC(=O)c1ccc(NCc2nc(-c3ccc4ncnn4c3)c(-c3cccc(C)n3)[nH]2)cc1 [Example 73, Methyl 4-((4-([1,2,4]triazolo[1,5-a]pyridin-6-yl)-5-(6-methylpyridin-2-yl)-1H-imidazol-2-yl)methylamino)benzoate]",78
5,"CC(=O)Nc1ccccc1NCc1nc(-c2ccc3ncnn3c2)c(-c2cccc(C)n2)[nH]1 [Example 74, N-(2-((4-([1,2,4]triazolo[1,5-a]pyridin-6-yl)-5-(6-methylpyridin-2-yl)-1H-imidazol-2-yl)methylamino)phenyl)acetamide]",39.5
6,"CC(=O)Nc1cccc(NCc2nc(-c3ccc4ncnn4c3)c(-c3cccc(C)n3)[nH]2)c1 [Example 75, N-(3-((4-([1,2,4]triazolo[1,5-a]pyridin-6-yl)-5-(6-methylpyridin-2-yl)-1H-imidazol-2-yl)methylamino)phenyl)acetamide]",15.4
7,"CC(=O)Nc1ccc(NCc2nc(-c3ccc4ncnn4c3)c(-c3cccc(C)n3)[nH]2)cc1 [Example 76, N-(4-((4-([1,2,4]triazolo[1,5-a]pyridin-6-yl)-5-(6-methylpyridin-2-yl)-1H-imidazol-2-yl)methylamino)phenyl)acetamide]",39
8,"Cc1cccc(-c2[nH]c(CNc3ccccc3NS(C)(=O)=O)nc2-c2ccc3ncnn3c2)n1 [Example 77, N-(2-((4-([1,2,4]triazolo[1,5-a]pyridin-6-yl)-5-(6-methylpyridin-2-yl)-1H-imidazol-2-yl)methylamino)phenyl)methanesulfonamide]",15.3
9,"Cc1cccc(-c2[nH]c(CNc3cccc(NS(C)(=O)=O)c3)nc2-c2ccc3ncnn3c2)n1 [Example 78, N-(3-((4-([1,2,4]triazolo[1,5-a]pyridin-6-yl)-5-(6-methylpyridin-2-yl)-1H-imidazol-2-yl)methylamino)phenyl)methanesulfonamide]",15.1
10,"Cc1cccc(-c2[nH]c(CNc3ccc(NS(C)(=O)=O)cc3)nc2-c2ccc3ncnn3c2)n1 [Example 79, N-(4-((4-([1,2,4]triazolo[1,5-c]pyridin-6-yl)-5-(6-methylpyridin-2-yl)-1H-imidazol-2-yl)methylamino)phenyl)methanesulfonamide]",46.6
11,"CCc1cccc(-c2[nH]c(CNc3cccc(C#N)c3)nc2-c2ccc3ncnn3c2)n1 [Example 138, 3-((4-([1,2,4]triazolo[1,5-a]pyridin-6-yl)-5-(6-ethylpyridin-2-yl)-1H-imidazol-2-yl)methylamino)benzonitrile]",9.4
12,"CCc1cccc(-c2[nH]c(CNc3ccccc3F)nc2-c2ccc3ncnn3c2)n1 [Example 139, N-((4-([1,2,4]triazolo[1,5-a]pyridin-6-yl)-5-(6-ethylpyridin-2-yl)-1H-imidazol-2-yl)methyl)-2-fluoroaniline]",23.2
13,"Cc1cccc(-c2[nH]c(CN(C)c3ccccc3F)nc2-c2ccc3ncnn3c2)n1 [Example 140, N-((4-([1,2,4]triazolo[1,5-a]pyridin-6-yl)-5-(6-methylpyridin-2-yl)-1H-imidazol-2-yl)methyl)-2-fluoro-N-methylaniline]",49.8
14,Cc1cccc(-c2[nH]c(CN(C)c3cccc(C#N)c3)nc2-c2ccc3ncnn3c2)n1 [Example 141],118
15,Cc1cccc(-c2[nH]c(CN(C)c3cccc(C(N)=O)c3)nc2-c2ccc3ncnn3c2)n1 [Example 142],153
16,"Cc1cccc(-c2[nH]c(Cc3ccccc3)nc2-c2ccc3ncnn3c2)n1 [Example 143, 6-(2-benzyl-5-(6-methylpyridin-2-yl)-1H-imidazol-4-yl)-[1,2,4]triazolo[1,5-a]pyridine]",19.8
17,"Cc1cccc(-c2[nH]c(Cc3ccccc3F)nc2-c2ccc3ncnn3c2)n1 [Example 144, 6-(2-(2-fluorobenzyl)-5-(6-methylpyridin-2-yl)-1H-imidazol-4-yl)-[1,2,4]triazolo[1,5-a]pyridine]",25.1
